As usually defined, the melting point is the temperature, or range, at which the solid turns liquid. What is called remaining activity is the share of the control activity or signal that is left under treatment. The IC50 is the concentration that gives 50% inhibition.

The values below come from US9586975B2, “Macrocyclic salt-inducible kinase inhibitors” (ONCODESIGN S.A., priority 2013, dated 2017).

One data set has as its target T1, SIK2 recombinant protein (Homo sapiens, UniProt Q9H0K1).
T1 construct: purchased Invitrogen Corporation
Kind of data set: Radiometric protein kinase assay (33PanQinase Activity Assay) for inhibition of SIK2 kinase. The data set is classed as biochemical. The note with it: for remaining activity at 0.1 µM / remaining activity at 1 µM: 1 h; for remaining activity at 0.1 µM: compound at 0.1 μM; for remaining activity at 1 µM: compound at 1 μM; for IC50: ATP 1.0 μM, SIK2 0.3 nM, substrate RBER-Chktide. The procedure:
The inhibition of SIK2 kinase was assessed using SIK2 recombinant protein in an in vitro peptide-based kinase assay.
A radiometric protein kinase assay (^33PanQinase® Activity Assay) is used for measuring the kinase activity. All assays are performed in 96-well FlashPlates™ from Perkin Elmer in a 50 μl reaction volume. The reaction cocktail is […] in 4 steps in the following order: • 10 μl of non-radioactive ATP solution (in H2O) • 25 μl of assay buffer/[γ-^33P]-ATP mixture • 5 μl of test sample in 10% DMSO • 10 μl of enzyme/substrate mixture
The assay for SIK2 contains 70 mM HEPES-NaOH pH 7.5, 3 mM MgCl2, 3 mM MnCl2, 3 μM Na-orthovanadate, 1.2 mM DTT, 50 μg/ml PEG20000, ATP (1.0 μM), [γ-^33P]-ATP (approx. 5×10^05 cpm per well), protein kinase SIK2 (0.3 nM) and substrate (RBER-Chktide), 2.0 μg/50 μl).
The kinase is obtained from Invitrogen Corporation.
The reaction cocktails were incubated at 30° C. for 60 minutes. The reaction was stopped with 50 μl of 2% (v/v) H3PO4, plates were aspirated and washed two times with 200 μl 0.9% (w/v) NaCl. Incorporation of ^33Pi (counting of “cpm”) was determined with a microplate scintillation counter.
The compounds are dissolved to 10 mM in DMSO. Where needed, solutions are sonicated in a bath sonicator.
Table 4 provides the pIC50 values and % Remaining activity values at two concentrations (1 μM and 0.1 μM) of the compounds according to the invention, obtained using the above mentioned kinase assay.

Where a name gives a salt, the structure may show the parent alone.

T1 sequence (Q9H0K1 whole entry): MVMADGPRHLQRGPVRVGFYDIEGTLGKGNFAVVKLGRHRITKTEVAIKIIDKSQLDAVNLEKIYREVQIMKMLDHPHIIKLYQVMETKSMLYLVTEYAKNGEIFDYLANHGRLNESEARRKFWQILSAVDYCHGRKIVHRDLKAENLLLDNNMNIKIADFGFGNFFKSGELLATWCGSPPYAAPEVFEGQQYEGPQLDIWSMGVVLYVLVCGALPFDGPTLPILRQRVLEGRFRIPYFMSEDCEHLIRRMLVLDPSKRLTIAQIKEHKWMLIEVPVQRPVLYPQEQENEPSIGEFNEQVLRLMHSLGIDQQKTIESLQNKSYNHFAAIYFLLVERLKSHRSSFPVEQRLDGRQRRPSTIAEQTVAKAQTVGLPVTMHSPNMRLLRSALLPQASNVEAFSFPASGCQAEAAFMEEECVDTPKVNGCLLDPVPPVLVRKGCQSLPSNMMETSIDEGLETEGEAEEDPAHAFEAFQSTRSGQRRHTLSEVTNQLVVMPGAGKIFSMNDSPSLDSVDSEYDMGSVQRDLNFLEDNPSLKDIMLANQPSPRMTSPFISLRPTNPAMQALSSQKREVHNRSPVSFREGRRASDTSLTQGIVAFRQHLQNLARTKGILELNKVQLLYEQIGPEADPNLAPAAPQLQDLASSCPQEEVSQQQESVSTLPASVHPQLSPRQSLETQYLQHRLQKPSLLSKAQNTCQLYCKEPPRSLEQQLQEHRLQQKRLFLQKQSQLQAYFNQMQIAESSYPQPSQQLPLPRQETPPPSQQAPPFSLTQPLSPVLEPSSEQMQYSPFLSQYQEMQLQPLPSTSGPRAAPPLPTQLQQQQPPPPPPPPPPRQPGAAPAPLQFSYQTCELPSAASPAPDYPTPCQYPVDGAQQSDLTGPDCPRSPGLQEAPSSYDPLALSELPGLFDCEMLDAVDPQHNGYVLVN

On to `CNCCN1CCOc2cccc(c2)-c2cnn3ccc(nc23)OCC1` (as salt: HCl) [Compound H86], for which the melting point was 247 °C.
Same read-out and setting: to `c1cc2cc(c1)-c1cnn3ccc(nc13)OCCCNCCCN2` (as salt: HCl) [Compound H89] belongs 273.3 °C.
`CN(C)CCNC(=O)N1CCNCCOc2cccc(c2)-c2cnn3ccc1nc23` [Compound A11] came in with a melting point above 300 °C. Also, at SIK2 recombinant protein, the remaining activity at 0.1 µM was below 50%, the remaining activity at 1 µM is below 50% and the IC50 was below 0.1 µM.
`O=C(C1CC1)N1CCNc2ccn3ncc(c3n2)-c2cc(CO)cc(c2)OCC1` [Compound B75]: on SIK2 recombinant protein, the remaining activity at 0.1 µM was below 50% and the remaining activity at 1 µM was below 50%.
For `COCc1cc2cc(c1)-c1cnn3ccc(nc13)NCCNCCO2` [Compound H78], at SIK2 recombinant protein, the remaining activity at 0.1 µM is below 50%, the remaining activity at 1 µM is below 50% and the IC50 was below 0.1 µM.
With `COCc1cc2cc(c1)-c1cnn3ccc(nc13)NCCN(C(=O)C1CC1)CCO2` [Compound H79], the melting point was above 300 °C. Further, the IC50 on SIK2 recombinant protein was below 0.1 µM.
With `OCc1cc2cc(c1)-c1cnn3ccc(nc13)NCCNCCO2` [Compound H80], the IC50 at SIK2 recombinant protein is below 0.1 µM.
As to `OCc1cc2cc(c1)-c1cnn3ccc(nc13)NCCN(CC1CC1)CCO2` [Compound H81], the melting point worked out at 179.1 °C. Further, at SIK2 recombinant protein, the remaining activity at 0.1 µM was below 50%, the remaining activity at 1 µM was below 50% and the IC50 was below 0.1 µM.
For the compound `Cc1ccc2cc1OCCNCCNc1ccn3ncc-2c3n1` [Compound H82], the melting point is above 300 °C. In addition, at SIK2 recombinant protein, the remaining activity at 0.1 µM was below 50%, the remaining activity at 1 µM is below 50% and the IC50 is below 0.1 µM.
`Fc1cc2cc(c1)-c1cnn3ccc(nc13)NCCN(C1CCNCC1)CCO2` [Compound H83] gave a melting point of 246.2 °C. At SIK2 recombinant protein, the remaining activity at 0.1 µM is below 50%, the remaining activity at 1 µM was below 50% and the IC50 is below 0.1 µM.
With `NCCN1CCNc2ccn3ncc(c3n2)-c2cccc(c2)OCC1` [Compound H84], the melting point is above 300 °C. For the same compound, at SIK2 recombinant protein, the remaining activity at 0.1 µM was below 50%, the remaining activity at 1 µM was below 50% and the IC50 is below 0.1 µM.
On to `c1cc2cc(c1)-c1cnc3ccc(nn13)SCCNCCCN2` [Compound H85], for which the melting point was determined as 173.1 °C. Also, on SIK2 recombinant protein, the remaining activity at 0.1 µM is below 50%, the remaining activity at 1 µM was below 50% and the IC50 is below 0.1 µM.
On to `CNCCN1CCOc2cccc(c2)-c2cnn3ccc(nc23)OCC1` [Compound H86], for which, on SIK2 recombinant protein, the remaining activity at 0.1 µM was below 50%, the remaining activity at 1 µM is below 50% and the half-inhibitory concentration (IC50) is below 0.1 µM.
Turning to `c1cc2cc(c1)-c1cnn3ccc(nc13)OCCCNCCO2` [Compound H87], on SIK2 recombinant protein, the remaining activity at 0.1 µM was above 50%, the remaining activity at 1 µM was below 50% and the IC50 was below 0.1 µM.
Turning to `c1cc2cc(c1)-c1cnn3ccc(nc13)NCCCNCCCO2` [Compound H88], on SIK2 recombinant protein, the remaining activity at 0.1 µM is below 50%, the remaining activity at 1 µM is below 50% and the IC50 was below 0.1 µM.
As for `c1cc2cc(c1)-c1cnn3ccc(nc13)OCCCNCCCN2` [Compound H89], on SIK2 recombinant protein, the remaining activity at 0.1 µM is above 50%, the remaining activity at 1 µM is below 50% and the IC50 was below 0.1 µM.
In the case of `FC(F)(F)c1cc2cc(c1)-c1cnn3ccc(nc13)NCCCNCCO2` [Compound H90], the melting point is above 300 °C. At SIK2 recombinant protein, the remaining activity at 0.1 µM is below 50%, the remaining activity at 1 µM is below 50% and the IC50 is below 0.1 µM.
With `CN1CCCNc2ccn3ncc(c3n2)-c2cc(cc(C(F)(F)F)c2)OCC1` [Compound H91], at SIK2 recombinant protein, the remaining activity at 0.1 µM is below 50%, the remaining activity at 1 µM was below 50% and the IC50 was below 0.1 µM.
For `Cc1cc2cc(c1)-c1cnn3ccc(nc13)NCCCNCCO2` [Compound H92], the melting point was above 300 °C. In addition, at SIK2 recombinant protein, the remaining activity at 0.1 µM is below 50%, the remaining activity at 1 µM is below 50% and the IC50 was below 0.1 µM.
Regarding `Cc1cc2cc(c1)-c1cnn3ccc(nc13)NCCCN(C)CCO2` [Compound H93], at SIK2 recombinant protein, the remaining activity at 0.1 µM is below 50%, the remaining activity at 1 µM is below 50% and the IC50 was below 0.1 µM.
For `CN1CCCOc2cccc(c2)-c2cnn3ccc(nc23)NCC1` [Compound H94], the melting point is 288 °C. Moreover, the IC50 on SIK2 recombinant protein was below 0.1 µM.
For the compound `CCN1CCCNc2ccn3ncc(c3n2)-c2cc(C)cc(c2)OCC1` [Compound H95], at SIK2 recombinant protein, the remaining activity at 0.1 µM is below 50%, the remaining activity at 1 µM is below 50% and the IC50 is below 0.1 µM.
With `OCc1cc2cc(c1)-c1cnn3ccc(nc13)NCCCNCCO2` [Compound H96], on SIK2 recombinant protein, the remaining activity at 0.1 µM is below 50%, the remaining activity at 1 µM is below 50% and the IC50 is below 0.1 µM.
Turning to `OCCN1CCNc2ccn3ncc(c3n2)-c2cc(Cl)cc(c2)OCC1` [Compound H97], the melting point is 285.2 °C. Also, at SIK2 recombinant protein, the remaining activity at 0.1 µM is below 50%, the remaining activity at 1 µM was below 50% and the IC50 was below 0.1 µM.
`c1cc2cc(c1)-c1cnn3ccc(nc13)SCCNCCCO2` [Compound H98] yielded a melting point of 178.1 °C. Further, on SIK2 recombinant protein, the remaining activity at 0.1 µM is below 50%, the remaining activity at 1 µM was below 50% and the IC50 is 0.1 to 1 µM.
For the compound `c1cc2cc(c1)-c1cnc3ccc(nn13)SCCNCCCO2` [Compound H99], the melting point worked out at 125.6 °C. The IC50 on SIK2 recombinant protein lay in the range of 0.1 to 1 µM.
Regarding `OCc1cc2cc(c1)-c1cnn3ccc(nc13)NCCCNCCN2` [Compound H100], on SIK2 recombinant protein, the remaining activity at 0.1 µM is below 50%, the remaining activity at 1 µM was below 50% and the IC50 is below 0.1 µM.
